{"source": "patent US11534457B2", "about": "“Use of dextran sulfate” (priority 2017, dated 2022)", "test_system": "severe traumatic brain injury (sTBI)", "assay": "sTBI in rats, HPLC of purine-pyrimidine / energy metabolites in brain (Example 3)", "type": "in vivo, Male Wistar rats", "experimental": "The experimental protocol used in this study was approved by the Ethical Committee of the Catholic University of Rome, according to international standards and guidelines for animal care. Male Wistar rats of 300-350 g body weight (b.w.) were fed with standard laboratory diet and water ad libitum in a controlled environment.\n1) n=6 animals subjected to sTBI, with drug administration after 30 minutes and sacrifice at 2 days post-TBI (Acute phase 1)\n2) n=6 animals subjected to severe-TBI, with drug administration after 30 minutes and sacrifice at 7 days post-TBI (Acute phase 2).\n3) n=6 animals subjected to severe-TBI, with drug administration after 3 days and sacrifice at 7 days post-TBI (Chronic phase).\nAs the anesthetic mixture, animals received 35 mg/kg b.w. ketamine and 0.25 mg/kg b.w. midazolam by i.p. injection. sTBI was induced by dropping a 450 g weight from 2 m height on to the rat head that had been protected by a metal disk previously fixed on the skull, according to the “weight drop” impact acceleration model (Marmarou et al., A new model of diffuse brain injury in rats. Part I: Pathophysiology and biomechanics. J Neurosurg. 1994; 80: 291-300). […] At the end of each period of treatment, rats were anesthetized again and then immediately sacrificed.\nThe drug treatment was a subcutaneous injection of 0.5 ml of LMW-DS (15 mg/kg) and administered according to the aforementioned schematic protocol.\nAn in vivo craniectomy was performed in all animals during anesthesia, after carefully removing the rat's skull, the brain was exposed and removed with a surgical spatula and quickly dropped in liquid nitrogen. After the wet weight (w.w.) determination, tissue preparation was affected as previously disclosed (Tavazzi et al., Cerebral oxidative stress and depression of energy metabolism correlate with severity of diffuse brain injury in rats. Neurosurgery. 2005; 56: 582-589; Vagnozzi et al., Temporal window of metabolic brain vulnerability to concussions: mitochondrial-related impairment-part I. Neurosurgery. 2007; 61: 379-388; Tavazzi et al., Temporal window of metabolic brain vulnerability to concussions: oxidative and nitrosative stresses-part II. Neurosurgery. 2007; 61: 390-395; Amorini et al., Severity of experimental traumatic brain injury modulates changes in concentrations of cerebral free amino acids. J Cell Mol Med. 2017; 21: 530-542.). Briefly, whole brain homogenization was performed with 7 ml of ice-cold, nitrogen-saturated, precipitating solution composed by CH3CN+10 mM KH2PO4, pH 7.40, (3:1; v:v), and using an Ultra-Turrax set at 24,000 rpm/min (Janke & Kunkel, Staufen, Germany). After centrifugation at 20,690×g, for 10 min at 4° C., the clear supernatants were saved, pellets were supplemented with 3 ml of the precipitating solution and homogenized again as described above. A second centrifugation was performed (20,690×g, for 10 min at 4° C.), pellets were saved, supernatants combined with those previously obtained, extracted by vigorous agitation with a double volume of HPLC-grade CHCl3 and centrifuged as above. The upper aqueous phases containing water-soluble low-molecular weight compounds were collected, subjected to chloroform washings for two more times (this procedure allowed the removal of all the organic solvent and of any lipid soluble compound from the buffered tissue extracts), adjusted in volumes with 10 mM KH2PO4, pH 7.40, to have ultimately aqueous 10% tissue homogenates and saved at −80° C. until assayed. […]", "key": {"[1]": {"details": "Acute phase 1: 15 mg/kg s.c. 30 min post-sTBI, sacrifice 2 days"}, "[2]": {"details": "Acute phase 2: 15 mg/kg s.c. 30 min post-sTBI, sacrifice 7 days"}}, "note": "Marks after values point to notes of the source that are not given here.", "data": [{"substance": "low molecular weight dextran sulfate [LMW-DS]", "values": [{"measurement": "brain MDA levels", "setting": "15 mg/kg s.c.", "value": "significant reduction"}, {"measurement": "brain NAA and its substrates", "setting": "15 mg/kg s.c.", "value": "significant improvements"}, {"measurement": "brain ascorbic acid and GSH levels", "setting": "15 mg/kg s.c.", "value": "significant improvement"}, {"measurement": "brain nitrate concentrations", "setting": "15 mg/kg s.c., acute and chronic phases of sTBI", "value": "significantly decreased"}, {"measurement": "ADO, cerebral concentration", "setting": "[1]", "value": "71.67 ± 15.87 nmol/g (w.w.)"}, {"measurement": "ADP, cerebral concentration", "setting": "[1]", "value": "279.34 ± 29.59^b nmol/g (w.w.)"}, {"measurement": "ADP-ribose, cerebral concentration", "setting": "[1]", "value": "137.87 ± 43.18^a nmol/g (w.w.)"}, {"measurement": "AMP, cerebral concentration", "setting": "[1]", "value": "53.61 ± 17.91^a,c,j nmol/g (w.w.)"}, {"measurement": "ATP, cerebral concentration", "setting": "[1]", "value": "1464.25 ± 99.09^a,h nmol/g (w.w.)"}, {"measurement": "CDP choline, cerebral concentration", "setting": "[1]", "value": "10.93 ± 3.22^b,h nmol/g (w.w.)"}, {"measurement": "CDP, cerebral concentration", "setting": "[1]", "value": "25.53 ± 6.83^a,c nmol/g (w.w.)"}, {"measurement": "CMP, cerebral concentration", "setting": "[1]", "value": "30.12 ± 9.97^a,h nmol/g (w.w.)"}, {"measurement": "CTP, cerebral concentration", "setting": "[1]", "value": "18.98 ± 6.58^a,g nmol/g (w.w.)"}, {"measurement": "CoA-SH, cerebral concentration", "setting": "[1]", "value": "21.61 ± 3.42^a,h nmol/g (w.w.)"}, {"measurement": "GDP glucose, cerebral concentration", "setting": "[1]", "value": "38.71 ± 6.86 nmol/g (w.w.)"}, {"measurement": "GDP, cerebral concentration", "setting": "[1]", "value": "158.72 ± 24.57^a nmol/g (w.w.)"}, {"measurement": "GMP, cerebral concentration", "setting": "[1]", "value": "177.00 ± 32.39^a,g nmol/g (w.w.)"}, {"measurement": "GSH, cerebral concentration", "setting": "[1]", "value": "2649.50 ± 397.31^a,d nmol/g (w.w.)"}, {"measurement": "GSSG, cerebral concentration", "setting": "[1]", "value": "185.21 ± 48.10 nmol/g (w.w.)"}, {"measurement": "GTP, cerebral concentration", "setting": "[1]", "value": "255.29 ± 45.21^a,g nmol/g (w.w.)"}, {"measurement": "IMP, cerebral concentration", "setting": "[1]", "value": "67.71 ± 10.63^g,i nmol/g (w.w.)"}, {"measurement": "MDA, cerebral concentration", "setting": "[1]", "value": "12.47 ± 2.09^a,c,g nmol/g (w.w.)"}, {"measurement": "NADH, cerebral concentration", "setting": "[1]", "value": "15.49 ± 2.05^c,j nmol/g (w.w.)"}, {"measurement": "NADPH, cerebral concentration", "setting": "[1]", "value": "6.22 ± 1.73 nmol/g (w.w.)"}, {"measurement": "NADP^+, cerebral concentration", "setting": "[1]", "value": "17.95 ± 3.28^a nmol/g (w.w.)"}, {"measurement": "NAD^+, cerebral concentration", "setting": "[1]", "value": "404.63 ± 51.10^a,c,i nmol/g (w.w.)"}, {"measurement": "NM, cerebral concentration", "setting": "[1]", "value": "6147.91 ± 989.12^a nmol/g (w.w.)"}, {"measurement": "NO2, cerebral concentration", "setting": "[1]", "value": "216.03 ± 41.74^a nmol/g (w.w.)"}, {"measurement": "NO3, cerebral concentration", "setting": "[1]", "value": "210.64 ± 91.95^d nmol/g (w.w.)"}, {"measurement": "UDP, cerebral concentration", "setting": "[1]", "value": "61.83 ± 10.23^a,g nmol/g (w.w.)"}, {"measurement": "UDP-Gal, cerebral concentration", "setting": "[1]", "value": "119.45 ± 12.50 nmol/g (w.w.)"}, {"measurement": "UDP-GalNac, cerebral concentration", "setting": "[1]", "value": "19.17 ± 4.01^a nmol/g (w.w.)"}, {"measurement": "UDP-Glc, cerebral concentration", "setting": "[1]", "value": "32.14 ± 4.59^g nmol/g (w.w.)"}, {"measurement": "UDP-GlcNac, cerebral concentration", "setting": "[1]", "value": "95.85 ± 19.73^h,i nmol/g (w.w.)"}, {"measurement": "UMP, cerebral concentration", "setting": "[1]", "value": "107.80 ± 21.62 nmol/g (w.w.)"}, {"measurement": "UTP, cerebral concentration", "setting": "[1]", "value": "123.46 ± 15.42^d nmol/g (w.w.)"}, {"measurement": "acetyl-CoA, cerebral concentration", "setting": "[1]", "value": "21.56 ± 6.22^a,g,i nmol/g (w.w.)"}, {"measurement": "adenine, cerebral concentration", "setting": "[1]", "value": "44.82 ± 6.31^a,d,g nmol/g (w.w.)"}, {"measurement": "ascorbic acid, cerebral concentration", "setting": "[1]", "value": "3733.10 ± 277.88^a,d nmol/g (w.w.)"}, {"measurement": "creatinine, cerebral concentration", "setting": "[1]", "value": "24.55 ± 3.20^b,g,i nmol/g (w.w.)"}, {"measurement": "cytidine, cerebral concentration", "setting": "[1]", "value": "15.40 ± 3.04 nmol/g (w.w.)"}, {"measurement": "cytosine, cerebral concentration", "setting": "[1]", "value": "17.69 ± 2.50^b,d nmol/g (w.w.)"}, {"measurement": "guanine, cerebral concentration", "setting": "[1]", "value": "4.80 ± 1.24^b nmol/g (w.w.)"}, {"measurement": "guanosine, cerebral concentration", "setting": "[1]", "value": "20.71 ± 5.66 nmol/g (w.w.)"}, {"measurement": "hypoxanthine, cerebral concentration", "setting": "[1]", "value": "14.47 ± 2.87^a nmol/g (w.w.)"}, {"measurement": "inosine, cerebral concentration", "setting": "[1]", "value": "92.55 ± 31.20^c nmol/g (w.w.)"}, {"measurement": "malonyl-CoA, cerebral concentration", "setting": "[1]", "value": "12.33 ± 1.82^b nmol/g (w.w.)"}, {"measurement": "orotic acid, cerebral concentration", "setting": "[1]", "value": "8.80 ± 2.45^b,h,j nmol/g (w.w.)"}, {"measurement": "thymidine, cerebral concentration", "setting": "[1]", "value": "0.69 ± 0.11 nmol/g (w.w.)"}, {"measurement": "uracil, cerebral concentration", "setting": "[1]", "value": "14.56 ± 5.44 nmol/g (w.w.)"}, {"measurement": "uric acid, cerebral concentration", "setting": "[1]", "value": "23.62 ± 3.77^a,d,h nmol/g (w.w.)"}, {"measurement": "uridine, cerebral concentration", "setting": "[1]", "value": "76.35 ± 12.85^a,c nmol/g (w.w.)"}, {"measurement": "xanthine, cerebral concentration", "setting": "[1]", "value": "9.46 ± 2.34^d nmol/g (w.w.)"}, {"measurement": "β-pseudouridine, cerebral concentration", "setting": "[1]", "value": "6.65 ± 1.30^g,i nmol/g (w.w.)"}, {"measurement": "ADO, cerebral concentration", "setting": "[2]", "value": "82.11 ± 16.51^a nmol/g (w.w.)"}, {"measurement": "ADP, cerebral concentration", "setting": "[2]", "value": "264.07 ± 28.29^b,e,j nmol/g (w.w.)"}, {"measurement": "ADP-ribose, cerebral concentration", "setting": "[2]", "value": "141.96 ± 23.56^a,e,j nmol/g (w.w.)"}, {"measurement": "AMP, cerebral concentration", "setting": "[2]", "value": "57.70 ± 23.01^a,e,j nmol/g (w.w.)"}, {"measurement": "ATP, cerebral concentration", "setting": "[2]", "value": "1632.23 ± 90.07^a,e,j nmol/g (w.w.)"}, {"measurement": "CDP choline, cerebral concentration", "setting": "[2]", "value": "6.91 ± 1.86 nmol/g (w.w.)"}, {"measurement": "CDP, cerebral concentration", "setting": "[2]", "value": "24.29 ± 6.76^a nmol/g (w.w.)"}, {"measurement": "CMP, cerebral concentration", "setting": "[2]", "value": "15.68 ± 2.12^f,j nmol/g (w.w.)"}, {"measurement": "CTP, cerebral concentration", "setting": "[2]", "value": "32.63 ± 3.99^e,i nmol/g (w.w.)"}, {"measurement": "CoA-SH, cerebral concentration", "setting": "[2]", "value": "30.57 ± 6.02^f nmol/g (w.w.)"}, {"measurement": "GDP glucose, cerebral concentration", "setting": "[2]", "value": "49.25 ± 10.33^a nmol/g (w.w.)"}, {"measurement": "GDP, cerebral concentration", "setting": "[2]", "value": "126.70 ± 31.35^a,j nmol/g (w.w.)"}, {"measurement": "GMP, cerebral concentration", "setting": "[2]", "value": "91.47 ± 12.35^e,i nmol/g (w.w.)"}, {"measurement": "GSH, cerebral concentration", "setting": "[2]", "value": "2821.50 ± 242.82^a,e nmol/g (w.w.)"}, {"measurement": "GSSG, cerebral concentration", "setting": "[2]", "value": "219.54 ± 53.36 nmol/g (w.w.)"}, {"measurement": "GTP, cerebral concentration", "setting": "[2]", "value": "336.65 ± 35.18^a,e,j nmol/g (w.w.)"}, {"measurement": "IMP, cerebral concentration", "setting": "[2]", "value": "102.63 ± 22.09^a nmol/g (w.w.)"}, {"measurement": "MDA, cerebral concentration", "setting": "[2]", "value": "4.82 ± 1.73^a,e,i nmol/g (w.w.)"}, {"measurement": "NADH, cerebral concentration", "setting": "[2]", "value": "13.12 ± 4.19^e nmol/g (w.w.)"}, {"measurement": "NADPH, cerebral concentration", "setting": "[2]", "value": "7.05 ± 2.21 nmol/g (w.w.)"}, {"measurement": "NADP^+, cerebral concentration", "setting": "[2]", "value": "21.27 ± 4.19^b,e,j nmol/g (w.w.)"}, {"measurement": "NAD^+, cerebral concentration", "setting": "[2]", "value": "401.18 ± 34.53^a,e,i nmol/g (w.w.)"}, {"measurement": "NM, cerebral concentration", "setting": "[2]", "value": "7262.84 ± 749.73^a,e nmol/g (w.w.)"}]}]}
